Test system: rat anxiety behavior induced by high-dose intake of caffeine
Assay: Elevated plus-maze test, Test 1: CBD against caffeine-induced anxiety behavior
Type: in vivo, wistar rats
Protocol: Test Animals: 50 SPF male wistar rats (180-200 g). Feeding Conditions: SPF animal houses, free feeding, 12 h light/12 h darkness.
Each CBD administration group was also intragastrically administrated with a corresponding dose of a CBD soybean oil solution at the same time, and then an elevated plus-maze test was conducted within 30 minutes after administration.
Elevated Plus-maze (EMP) Test: A maze was cross-shaped and consists of 2 open arms (OAs), two closed arms (CAs) and a central platform. The maze was fixed on a support, 50 cm above the ground. A camera was placed above the central platform. The behaviors of rats were recorded and analyzed through a computer. The test was conducted in a quiet shaded condition. Before the test, the rats to be tested were placed in one rat cage. After freely exploring for 5 minutes, the rats were quickly placed on the central platform of the EMP. The observation test was started immediately after release. Each rat was tested for five minutes. After each rat was tested, the maze was thoroughly cleaned with a towel dipped in clean water and low-concentration ethanol. After the ethanol volatilizes and diffuses, the test on the next rat began.
(1) Open arm entry (OE): the number of entries into any open arm was based on the fact that four paws of each rat were located within the arms, and when any paw was completely withdrawn from the arms halfway, the current entry event was deemed as being completed.
(2) Open arm time (OT): it was measured in second.
(3) Closed arm entry (CE): the number of entries into any closed arm, which was determined based on the same standard as OE.
(4) Closed arm time (CT): it was measured in second.
(5) Calculation of the proportion of the number of entries into the open arm (OE %): namely, OE/(OE+CE)×100%.
(6) Proportion of residence time in the open arms (OT %): namely, OT/(OT+CT)×100%. OE % and OT % were used as indexes for evaluating the anxiety state of rats.
The data was expressed with x±s. One-way analysis of variance (one way ANOVA) was used to compare multi-sample means, and t test was used for inter-group comparison.

[1] = caffeine model group, 60 mg/kg caffeine intragastric, no CBD
[2] = CBD 1 mg/kg intragastric together with 60 mg/kg caffeine
[3] = CBD 10 mg/kg intragastric together with 60 mg/kg caffeine
[4] = CBD 100 mg/kg intragastric together with 60 mg/kg caffeine

For `Cn1c(=O)c2c(ncn2C)n(C)c1=O` [Caffeine], the “CE (closed arm entry)” value [1] was 7.8 ± 0.11 times, the “CT (closed arm time)” value [1] was 253 ± 5.09 s and the “OE % (proportion of entries into the open arm)” value (“OE %” for short) [1] was 21.21%. The “OT (open arm time)” value [1] was 42.9 ± 1.89 s and the “OE (open arm entry)” value (caffeine model group, 60 mg/kg caffeine saline solution intragastric, no CBD, EPM within 30 min, 5 min test) was 2.1 ± 0.78 times.
For `C=C(C)[C@@H]1CCC(C)=C[C@H]1c1c(O)cc(CCCCC)cc1O` [CBD, Cannabidiol], the “OE (open arm entry)” value (CBD 1 mg/kg in soybean oil intragastric together with 60 mg/kg caffeine) was 3.2 ± 0.45 times, the “CE (closed arm entry)” value [2] was 7.0 ± 0.92 times and the “CT (closed arm time)” value [2] was 244 ± 5.14 s. For the same molecule, the “OE %” value [2] was 31.37%, the “OT % (proportion of residence time in the open arms)” value (from here on “OT %”) [2] was 19.24% and the “OT (open arm time)” value [2] was 58.1 ± 3.30 s. For the same molecule, the “CE (closed arm entry)” value [3] was 5.3 ± 1.07 times, the “CT (closed arm time)” value [3] was 214 ± 4.01 s and the “OE %” value [3] was 47.52%. For the same molecule, the “OE (open arm entry)” value [3] was 4.8 ± 0.91 times, the “OT %” value [3] was 28.43% and the “OT (open arm time)” value [3] was 85 ± 2.07 s. For the same molecule, the “CE (closed arm entry)” value [4] was 4.5 ± 0.91 times, the “CT (closed arm time)” value [4] was 201 ± 3.05 s and the “OE %” value [4] was 54.00%. For the same molecule, the “OE (open arm entry)” value [4] was 5.4 ± 0.25 times, the “OT %” value [4] was 33.22% and the “OT (open arm time)” value [4] was 100 ± 1.32 s. For the same molecule, the “effect on the anxiety behavior of rats (in words)” value (CBD 1-100 mg/kg intragastric together with 60 mg/kg caffeine) was “significant effect on inhibiting the anxiety behavior”.

Source: patent US20210069198A1 (HANYI BIO-TECHNOLOGY (BEIJING) CO., LTD., priority 2017, published 2021)
